# What was measured:
# [1] = target: T1, Hsp70 (Heat Shock Protein 70 1A) (Homo sapiens, UniProt P0DMV8); assay: SPR (Biacore […]), single-site model; assay type: binding
# T1 construct: gene HSPA1A; recombinant Hsp70 immobilized on CM5 chip
# [2] = target: T1, Hsp70 (Heat Shock Protein 70 1A); assay: SPR (Biacore […]), single-site model; positive control; assay type: binding
# T1 sequence (P0DMV8 2-641): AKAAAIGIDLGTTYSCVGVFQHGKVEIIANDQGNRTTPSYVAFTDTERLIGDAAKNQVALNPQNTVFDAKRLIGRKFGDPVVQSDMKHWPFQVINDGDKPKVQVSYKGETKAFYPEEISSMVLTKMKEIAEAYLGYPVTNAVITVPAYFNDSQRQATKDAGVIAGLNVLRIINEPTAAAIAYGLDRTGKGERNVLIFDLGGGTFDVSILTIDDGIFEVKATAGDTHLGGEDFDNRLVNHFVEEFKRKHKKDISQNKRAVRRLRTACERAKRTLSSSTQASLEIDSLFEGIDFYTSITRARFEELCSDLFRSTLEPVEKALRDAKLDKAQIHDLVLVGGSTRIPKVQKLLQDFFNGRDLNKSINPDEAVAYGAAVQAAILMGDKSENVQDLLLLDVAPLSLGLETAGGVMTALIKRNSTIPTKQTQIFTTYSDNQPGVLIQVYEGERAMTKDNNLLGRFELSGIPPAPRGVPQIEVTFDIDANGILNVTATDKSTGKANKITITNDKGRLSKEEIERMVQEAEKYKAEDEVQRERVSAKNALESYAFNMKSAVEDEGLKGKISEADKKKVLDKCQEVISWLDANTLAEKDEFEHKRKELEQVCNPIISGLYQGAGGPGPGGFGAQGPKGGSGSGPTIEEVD
Compound,Kd [1],Kd [2]
"CC1=CCC2C(C)(C)CCCC2(C)C1CC(O)C1=CC(=O)OC1 (single isomer, unassigned; ent-12) [compound 4, ent-12-hydroxylabda-7,13-dien-15,16-olide]",1000 nM,
C=C1C(=O)[C@]23[C@H](O)[C@H]1CC[C@H]2[C@@]12CO[C@]3(O)[C@@H](O)[C@@H]1C(C)(C)CC[C@@H]2O [oridonin],,81.4 nM

# Reference: paper PMC10347124, “Exploring the Anticancer Potential of Premna resinosa (Hochst.) Leaf Surface Extract: Discovering New Diterpenes as Heat Shock Protein 70 (Hsp70) Binding Agents” (Plants, 2023)
